Read-outs that look alike come from different tables or passages of the source.
Experiments:
Assay type in all cases: cell-based
[1] = test system: microfilariae of Dirofilaria immitis; assay: Dirofilaria immitis, Microfilaria (DiMf) In Vitro Assay; settings: Dirofilaria immitis, 72 h, read-out: DiMf MED, Minimum Effective Dose, D. immitis microfilariae motility, in vitro
[2] = test system: third stage larvae of Haemonchus contortus; assay: Haemonchus contortus, Larvae Stage 3 (HcL3) In Vitro Assay; settings: Haemonchus contortus, 96 h
D. immitis L4 larvae = assay: Dirofilaria immitis, L4 Stage (DiL4) In Vitro Assay; settings: for minimal effective concentration: Dirofilaria immitis, 72 h, read-out: DiL4 MED, Minimum Effective Dose, D. immitis L4 larvae motility, in vitro; for DiMf/DiL4: larval stage selectivity, ratio of DiMf MED to DiL4 MED
[3] = read-out: HcL3 MED, Minimum Effective Dose, H. contortus third stage larvae, approximately 96 hours
[4] = read-out: HcL3 MED (symbol after Ex#), approximately 96 hours incubation, multiple-resistant field isolate
[5] = read-out: HcL3 MED, Haemonchus contortus third stage larvae in vitro, class mark appended to the Ex # in Table 3
[6] = read-out: HcL3 MED, approximately 96 hours incubation, multiple-resistant field isolate

| Structure (SMILES) | minimal effective concentration [1] [µM] | minimal effective concentration [2, 3] [µM] | minimal effective concentration (D. immitis L4 larvae) [µM] | DiMf/DiL4 (D. immitis L4 larvae) | minimal effective concentration [2, 4] [µM] | minimal effective concentration [2, 5] [µM] | minimal effective concentration [2, 6] [µM] |
| --- | --- | --- | --- | --- | --- | --- | --- |
| CC(C)C[C@H]1C(=O)O[C@H](Cc2ccc(Cc3cnn(CCF)c3)cc2)C(=O)N(C)[C@@H](CC(C)C)C(=O)O[C@H](C)C(=O)N(C)[C@@H](CC(C)C)C(=O)O[C@H](Cc2ccc(Cc3cnn(CCF)c3)cc2)C(=O)N(C)[C@@H](CC(C)C)C(=O)O[C@H](C)C(=O)N1C [Example 3-286, (3S,6R,9S,12R,15S,18R,21S,24R)-6,18-bis(4-((1-(2-fluoroethyl)-1H-pyrazol-4-yl)methyl)benzyl)-3,9,15,21-tetraisobutyl-4,10,12,16,22,24-hexamethyl-1,7,13,19-tetraoxa-4,10,16,22-tetraazacyclotetracosan-2,5,8,11,14,17,20,23-octaone] | 0.03 | > 10 | 0.0005 | 60 |  |  |  |
| COc1ncccc1C(C)c1ccc(C[C@H]2OC(=O)[C@H](CC(C)C)N(C)C(=O)[C@@H](C)OC(=O)[C@H](CC(C)C)N(C)C(=O)[C@@H](Cc3ccc(C(C)c4cccnc4OC)cc3)OC(=O)[C@H](CC(C)C)N(C)C(=O)[C@@H](C)OC(=O)[C@H](CC(C)C)N(C)C2=O)cc1 (stereo partly drawn) [Example 3-261, (3S,6R,9S,12R,15S,18R,21S,24R)-3,9,15,21-tetraisobutyl-6,18-bis(4-(1-(2-methoxypyridin-3-yl)ethyl)benzyl)-4,10,12,16,22,24-hexamethyl-1,7,13,19-tetraoxa-4,10,16,22-tetraazacyclotetracosan-2,5,8,11,14,17,20,23-octaone] | 0.03 | > 100 | < 0.0001 | >300 |  |  |  |
| COc1cc(C)c(Cc2ccc(C[C@H]3OC(=O)[C@H](CC(C)C)N(C)C(=O)[C@@H](C)OC(=O)[C@H](CC(C)C)N(C)C(=O)[C@@H](Cc4ccccc4)OC(=O)[C@H](CC(C)C)N(C)C(=O)[C@@H](C)OC(=O)[C@H](CC(C)C)N(C)C3=O)cc2)cn1 [Example 4-126, (3S,6R,9S,12R,15S,18R,21S,24R)-6-benzyl-3,9,15,21-tetraisobutyl-18-(4-((6-methoxy-4-methylpyridin-3-yl)methyl)benzyl)-4,10,12,16,22,24-hexamethyl-1,7,13,19-tetraoxa-4,10,16,22-tetraazacyclotetracosan-2,5,8,11,14,17,20,23-octaone] | 0.003 | 1.8 | 0.0002 | 15 | 1 to 3.3 |  |  |
| Cc1cc(Cc2ccc(C[C@H]3OC(=O)[C@H](CC(C)C)N(C)C(=O)[C@@H](C)OC(=O)[C@H](CC(C)C)N(C)C(=O)[C@@H](Cc4ccc(Cc5cc(C)nn5C)cc4)OC(=O)[C@H](CC(C)C)N(C)C(=O)[C@@H](C)OC(=O)[C@H](CC(C)C)N(C)C3=O)cc2)n(C)n1 [Example 3-49, (3S,6R,9S,12R,15S,18R,21S,24R)-6,18-bis(4-((1,3-dimethyl-1H-pyrazol-5-yl)methyl)benzyl)-3,9,15,21-tetraisobutyl-4,10,12,16,22,24-hexamethyl-1,7,13,19-tetraoxa-4,10,16,22-tetraazacyclotetracosan-2,5,8,11,14,17,20,23-octaone] | 0.005 | 3.3 | 0.001 | 5 |  | 1 to 3.3 |  |
| COc1cncc(Cc2ccc(C[C@H]3OC(=O)[C@H](CC(C)C)N(C)C(=O)[C@@H](C)OC(=O)[C@H](CC(C)C)N(C)C(=O)[C@@H](Cc4ccc(Cc5cncc(OC)n5)cc4)OC(=O)[C@H](CC(C)C)N(C)C(=O)[C@@H](C)OC(=O)[C@H](CC(C)C)N(C)C3=O)cc2)n1 [Example 3-218, (3S,6R,9S,12R,15S,18R,21S,24R)-3,9,15,21-tetraisobutyl-6,18-bis(4-((6-methoxypyrazin-2-yl)methyl)benzyl)-4,10,12,16,22,24-hexamethyl-1,7,13,19-tetraoxa-4,10,16,22-tetraazacyclotetracosan-2,5,8,11,14,17,20,23-octaone] | 0.01 | > 23 | 0.0008 | 12.5 |  |  |  |
| Cc1ccc(Cc2ccc(C[C@H]3OC(=O)[C@H](CC(C)C)N(C)C(=O)[C@@H](C)OC(=O)[C@H](CC(C)C)N(C)C(=O)[C@@H](Cc4ccc(Cc5ccc(C)o5)cc4)OC(=O)[C@H](CC(C)C)N(C)C(=O)[C@@H](C)OC(=O)[C@H](CC(C)C)N(C)C3=O)cc2)o1 [Example 3-157, (3S,6R,9S,12R,15S,18R,21S,24R)-3,9,15,21-tetraisobutyl-4,6,10,16,18,22-hexamethyl-12,24-bis(4-((5-methylfuran-2-yl)methyl)benzyl)-1,7,13,19-tetraoxa-4,10,16,22-tetraazacyclotetracosan-2,5,8,11,14,17,20,23-octaone] | 0.1 | > 100 | 0.001 | 100 |  |  |  |
| CC(C)C[C@H]1C(=O)O[C@H](Cc2ccc([C@@H](c3ccc(OC(F)(F)F)cc3)N3CCOCC3)cc2)C(=O)N(C)[C@@H](CC(C)C)C(=O)O[C@H](C)C(=O)N(C)[C@@H](CC(C)C)C(=O)O[C@H](Cc2ccccc2)C(=O)N(C)[C@@H](CC(C)C)C(=O)O[C@@H](C)C(=O)N1C [Example 2-42, (3S,6R,9S,12R,15S,18R,21S,24S)-6-benzyl-3,9,15,21-tetraisobutyl-4,10,12,16,22,24-hexamethyl-18-[[4-[(S)-morpholino-[4-(trifluoromethoxy)phenyl]-methyl]phenyl]methyl]-1,7,13,19-tetraoxa-4,10,16,22-tetrazacyclotetracosane-2,5,8,11,14,17,20,23-octaone] | 0.3 | > 10 | 0.0003 | 1000 |  |  |  |
| CC(C)C[C@H]1C(=O)O[C@H](Cc2ccc(Cc3sccc3Cl)cc2)C(=O)N(C)[C@@H](CC(C)C)C(=O)O[C@H](C)C(=O)N(C)[C@@H](CC(C)C)C(=O)O[C@H](Cc2ccccc2)C(=O)N(C)[C@@H](CC(C)C)C(=O)O[C@H](C)C(=O)N1C [Example 4-75, (3S,6R,9S,12R,15S,18R,21S,24R)-6-benzyl-18-(4-((3-chlorothiophen-2-yl)methyl)benzyl)-3,9,15,21-tetraisobutyl-4,10,12,16,22,24-hexamethyl-1,7,13,19-tetraoxa-4,10,16,22-tetraazacyclotetracosan-2,5,8,11,14,17,20,23-octaone] | 0.01 | 1 | 0.0005 | 20 | < 1 |  | ≤ 1 |
| CC(C)C[C@H]1C(=O)O[C@H](Cc2ccc(Cc3ccc(C(F)F)nc3)cc2)C(=O)N(C)[C@@H](CC(C)C)C(=O)O[C@H](C)C(=O)N(C)[C@@H](CC(C)C)C(=O)O[C@H](Cc2ccc(Cc3ccc(C(F)F)nc3)cc2)C(=O)N(C)[C@@H](CC(C)C)C(=O)O[C@H](C)C(=O)N1C [Example 3-287, (3S,6R,9S,12R,15S,18R,21S,24R)-6,18-bis(4-((6-(difluoromethyl)pyridin-3-yl)methyl)benzyl)-3,9,15,21-tetraisobutyl-4,10,12,16,22,24-hexamethyl-1,7,13,19-tetraoxa-4,10,16,22-tetraazacyclotetracosan-2,5,8,11,14,17,20,23-octaone] | 0.05 | > 10 | 0.0005 | 100 |  |  |  |
| CC(C)C[C@H]1C(=O)O[C@H](Cc2ccc(Cc3nccs3)cc2)C(=O)N(C)[C@@H](CC(C)C)C(=O)O[C@H](C)C(=O)N(C)[C@@H](CC(C)C)C(=O)O[C@H](Cc2ccc(Cc3nccs3)cc2)C(=O)N(C)[C@@H](CC(C)C)C(=O)O[C@H](C)C(=O)N1C [Example 3-17, (3S,6R,9S,12R,15S,18R,21S,24R)-3,9,15,21-tetraisobutyl-4,6,10,16,18,22-hexamethyl-12,24-bis(4-(thiazol-2-ylmethyl)benzyl)-1,7,13,19-tetraoxa-4,10,16,22-tetraazacyclotetracosan-2,5,8,11,14,17,20,23-octaone] | 0.0003 | 0.5 | 0.0003 | 1 |  | < 1 | ≤ 1 |
| CC(C)C[C@H]1C(=O)O[C@H](Cc2ccc(Cc3ccnn3C)cc2)C(=O)N(C)[C@@H](CC(C)C)C(=O)O[C@H](C)C(=O)N(C)[C@@H](CC(C)C)C(=O)O[C@H](Cc2ccc(Cc3ccnn3C)cc2)C(=O)N(C)[C@@H](CC(C)C)C(=O)O[C@H](C)C(=O)N1C [Example 3-24, (3S,6R,9S,12R,15S,18R,21S,24R)-3,9,15,21-tetraisobutyl-4,6,10,16,18,22-hexamethyl-12,24-bis(4-((1-methyl-1H-pyrazol-5-yl)methyl)benzyl)-1,7,13,19-tetraoxa-4,10,16,22-tetraazacyclotetracosan-2,5,8,11,14,17,20,23-octaone] | 0.0001 | 1 | 3e-05 | 3.3 |  | < 1 | ≤ 1 |
| CC(C)C[C@H]1C(=O)O[C@H](Cc2ccc(Cc3cccnc3Br)cc2)C(=O)N(C)[C@@H](CC(C)C)C(=O)O[C@H](C)C(=O)N(C)[C@@H](CC(C)C)C(=O)O[C@H](Cc2ccc(Cc3cccnc3Br)cc2)C(=O)N(C)[C@@H](CC(C)C)C(=O)O[C@H](C)C(=O)N1C [Example 3-329, (3S,6R,9S,12R,15S,18R,21S,24R)-6,18-bis(4-((2-bromopyridin-3-yl)methyl)benzyl)-3,9,15,21-tetraisobutyl-4,10,12,16,22,24-hexamethyl-1,7,13,19-tetraoxa-4,10,16,22-tetraazacyclotetracosan-2,5,8,11,14,17,20,23-octaone] | 0.001 |  | 0.0001 | 10 |  | < 1 | ≤ 1 |
